Source: patent US20060069132A1, “Azolecarboxamide herbicides” (priority 2004, published 2006)

How the values were obtained:
Experiment in all cases: Test E pre-/postemergence herbicide test
[1] = test system: dallisgrass; assay type: in vivo, Paspalum dilatatum
Summary of the method: (§1)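 Pre-/postemergence spray, solvent + surfactant vehicle; post timing 1- to 4-leaf stage (2–18 cm). Greenhouse 12–14 d. Visual score 0 (no effect) to 100 (complete control) relative to controls.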

[2] = test system: Surinam grass; assay type: in vivo, Urochloa decumbens
Summary of the method: as §1

[3] = test system: quackgrass; assay type: in vivo, Elytrigia repens
Summary of the method: as §1

[4] = test system: common sowthistle; assay type: in vivo, Sonchus oleraceous
Summary of the method: as §1

[5] = test system: downy bromegrass; assay type: in vivo, Bromus tectorum
Summary of the method: as §1

[6] = test system: green foxtail; assay type: in vivo, Setaria viridis
Summary of the method: as §1

[7] = test system: common chickweed; assay type: in vivo, Stellaria media
Summary of the method: as §1

[8] = test system: johnsongrass; assay type: in vivo, Sorghum halepense
Summary of the method: as §1

[9] = test system: common mallow; assay type: in vivo, Malva sylvestris
Summary of the method: as §1

[10] = Preemergence, 125 g ai/ha, scale 0 to 100
[11] = Preemergence, 250 g ai/ha, scale 0 (no effect) to 100 (complete control)
[12] = Postemergence, 500 g ai/ha, scale 0 to 100
[13] = Postemergence, 250 g ai/ha, scale 0 to 100
[14] = Preemergence, 62 g ai/ha, scale 0 to 100
[15] = Preemergence, 500 g ai/ha, scale 0 (no effect) to 100 (complete control)
[16] = postemergence, 125 g ai/ha, scale 0 to 100
[17] = postemergence, 62 g ai/ha, scale 0 to 100

CCc1nn(C(C)C)nc1C(=O)Nc1cccc(C(=O)N(C)CC)c1 [Compound 386]
Plant response rating, Dallisgrass [1, 10]: 70 | Plant response rating, Dallisgrass [1, 11]: 75 | Plant response rating, Surinam Grass [2, 10]: 80 | Plant response rating, Quackgrass [3, 10]: 80 | Plant response rating, Quackgrass [3, 11]: 90 | Plant response rating, Sowthistle [4, 10]: 60 | Plant response rating, Sowthistle [4, 11]: 100 | Plant response rating, Bromegrass, Downy [5, 10]: 10 | Plant response rating, Bromegrass, Downy [5, 11]: 40 | Plant response rating, Foxtail, Green [6, 10]: 60 | Plant response rating, Foxtail, Green [6, 11]: 95 | Plant response rating, Chickweed [7, 10]: 95 | Plant response rating, Chickweed [7, 11]: 95 | Plant response rating, Johnsongrass [8, 10]: 75 | Plant response rating, Johnsongrass [8, 11]: 80 | Plant response rating, Mallow [9, 10]: 60 | Plant response rating, Mallow [9, 11]: 70

CCc1nn(C(C)(C)C)cc1C(=O)Nc1cc(C(=O)N(C)C)ccc1F [Compound 222, N-[5-[(dimethylamino)carbonyl]-2-fluorophenyl]-1-(1,1-dimethylethyl)-3-ethyl-1H-pyrazole-4-carboxamide]
Plant response rating, Dallisgrass [1, 12]: 85 | Plant response rating, Dallisgrass [1, 13]: 85 | Plant response rating, Dallisgrass [1, 14]: 50 | Plant response rating, Dallisgrass [1, 10]: 80 | Plant response rating, Dallisgrass [1, 11]: 100 | Plant response rating, Dallisgrass [1, 15]: 100 | Plant response rating, Dallisgrass [1, 16]: 60 | Plant response rating, Dallisgrass [1, 17]: 30 | Plant response rating, Surinam Grass [2, 13]: 80 | Plant response rating, Surinam Grass [2, 10]: 90 | Plant response rating, Surinam Grass [2, 15]: 100 | Plant response rating, Surinam Grass [2, 16]: 80 | Plant response rating, Surinam Grass [2, 17]: 50 | Plant response rating, Quackgrass [3, 12]: 85 | Plant response rating, Quackgrass [3, 13]: 80 | Plant response rating, Quackgrass [3, 14]: 10 | Plant response rating, Quackgrass [3, 10]: 80 | Plant response rating, Quackgrass [3, 11]: 100 | Plant response rating, Quackgrass [3, 15]: 100 | Plant response rating, Quackgrass [3, 16]: 75 | Plant response rating, Quackgrass [3, 17]: 30 | Plant response rating, Sowthistle [4, 12]: 100 | Plant response rating, Sowthistle [4, 13]: 100 | Plant response rating, Sowthistle [4, 14]: 75 | Plant response rating, Sowthistle [4, 10]: 90 | Plant response rating, Sowthistle [4, 11]: 90 | Plant response rating, Sowthistle [4, 15]: 95 | Plant response rating, Sowthistle [4, 16]: 60 | Plant response rating, Sowthistle [4, 17]: 20 | Plant response rating, Bromegrass, Downy [5, 13]: 80 | Plant response rating, Bromegrass, Downy [5, 14]: 30 | Plant response rating, Bromegrass, Downy [5, 10]: 90 | Plant response rating, Bromegrass, Downy [5, 11]: 90 | Plant response rating, Bromegrass, Downy [5, 15]: 100 | Plant response rating, Bromegrass, Downy [5, 16]: 50 | Plant response rating, Bromegrass, Downy [5, 17]: 10 | Plant response rating, Foxtail, Green [6, 13]: 80 | Plant response rating, Foxtail, Green [6, 14]: 10 | Plant response rating, Foxtail, Green [6, 10]: 50 | Plant response rating, Foxtail, Green [6, 11]: 100 | Plant response rating, Foxtail, Green [6, 15]: 100 | Plant response rating, Foxtail, Green [6, 16]: 40 | Plant response rating, Foxtail, Green [6, 17]: 10 | Plant response rating, Chickweed [7, 12]: 100 | Plant response rating, Chickweed [7, 13]: 100 | Plant response rating, Chickweed [7, 14]: 80 | Plant response rating, Chickweed [7, 10]: 100 | Plant response rating, Chickweed [7, 11]: 100 | Plant response rating, Chickweed [7, 15]: 100 | Plant response rating, Chickweed [7, 16]: 100 | Plant response rating, Chickweed [7, 17]: 80 | Plant response rating, Johnsongrass [8, 13]: 60 | Plant response rating, Johnsongrass [8, 14]: 70 | Plant response rating, Johnsongrass [8, 10]: 80 | Plant response rating, Johnsongrass [8, 11]: 90 | Plant response rating, Johnsongrass [8, 15]: 100 | Plant response rating, Johnsongrass [8, 16]: 60 | Plant response rating, Johnsongrass [8, 17]: 10 | Plant response rating, Mallow [9, 13]: 60 | Plant response rating, Mallow [9, 14]: 70 | Plant response rating, Mallow [9, 10]: 80 | Plant response rating, Mallow [9, 11]: 95 | Plant response rating, Mallow [9, 15]: 95 | Plant response rating, Mallow [9, 16]: 60 | Plant response rating, Mallow [9, 17]: 50
